Experimental data taken from patent US6914045B2, “Glycopeptide antibiotics” (Wyeth Holdings Corporation, priority 2001, dated 2005).
≈ marks a conversion by molar mass, not a printed value.

How the values were obtained:
[1] = test system: Staphylococcus sp.; test: in vitro antibacterial evaluation, MIC by broth dilution; format: cell-based; details: broth dilution, 18 hours at 35° C.
Outline: (§1)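 Inoculum 5×10^5 CFU/mL; concentrations 64 to 0.06 μg/mL; MIC defined as lowest inhibitory level. Conducted by broth dilution under NCCLS guidelines.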

[2] = test system: Enterococcus sp.; test: as above; format: cell-based; details: broth dilution, 18 hours at 35° C.
Outline: as §1

[3] = test system: Escherichia coli; test: as above; format: cell-based; details: 18 hours at 35° C.
Outline: as §1

[4] = test system: Streptococcus sp.; test: as above; format: cell-based; details: broth dilution, 18 hours at 35° C.
Outline: as §1

[5] = test system: Staphylococcus aureus-SMITH (GC 4543); test: acute lethal infection in mice; format: in vivo; details: acute lethal infection, female CD-1 mice, intraperitoneal challenge, intravenous 30 min. after infection, 7 day survival
Outline: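 Intraperitoneal challenge of female CD-1 mice with a bacterial dose lethal to untreated animals within 24-48 hr; single iv treatment 30 min later, 5 mice per dose level. Survival is scored at day 7 and pooled from three experiments to give the median effective dose.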

In the case of `COc1ccc(CC2OCC3OC(OC4C(CO)OC(Oc5ccc(CC6NC(=O)C(C(C)c7ccccc7)NC(=O)CNC(=O)C(CO)NC(=O)C(C(O)C7CNC(=N)N7C7OC(CO)C(O)C(O)C7O)NC(=O)C(C(O)C7CNC(=N)N7)NC6=O)cc5)C(O)C4O)C(O)C(O)C3O2)cc1` (stereo not drawn) [Example 103, Cyco[glycyl-β-methylphenylalanyl-O-[4-O-[4,6-O-(4-methoxyphenethylidene)hexopyranosyl]-hexopyranosyl]tyrosyl-3-(2-iminoimidazolidin-4-yl)seryl-3-(3-hexopyranosyl-2-iminoimidazolidin-4-yl)serylseryl]], the “MIC Coagulase Negative Staphylococcus (GC 4547)” value [1] is reported as 2 µg/mL (≈ 1.4 µM), the “MIC Coagulase Negative Staphylococcus (GC 4548)” value [1] is reported as 1 µg/mL (≈ 0.701 µM) and the “MIC Coagulase Negative Staphylococcus (GC 4549)” value [1] is reported as 1 µg/mL (≈ 0.701 µM). The “MIC Coagulase Negative Staphylococcus (GC 4551)” value [1] was 2 µg/mL (≈ 1.4 µM), the “MIC Coagulase Negative Staphylococcus (GC 6257)” value [1] was 1 µg/mL (≈ 0.701 µM) and the “MIC Staphylococcus aureus (ATCC 29213)” value [1] was 2 µg/mL (≈ 1.4 µM). The “MIC Staphylococcus aureus (GC 1131)” value [1] was 2 µg/mL (≈ 1.4 µM), the “MIC Staphylococcus aureus (GC 3051)” value [1] was 1 µg/mL (≈ 0.701 µM) and the “MIC Staphylococcus aureus (GC 3053)” value [1] was 2 µg/mL (≈ 1.4 µM). The “MIC Staphylococcus aureus (GC 4541)” value [1] was 2 µg/mL (≈ 1.4 µM), the “MIC Staphylococcus aureus (GC 4542)” value [1] was 2 µg/mL (≈ 1.4 µM) and the “MIC Staphylococcus aureus (GC 4544)” value [1] was 2 µg/mL (≈ 1.4 µM). For the same molecule, the “MIC Staphylococcus aureus (GC 4545)” value [1] was 1 µg/mL (≈ 0.701 µM), the “MIC Staphylococcus aureus-SMITH (GC 4543)” value [1] was 1 µg/mL (≈ 0.701 µM) and the “MIC Staphylococcus haemolyticus (GC 4546)” value [1] was 1 µg/mL (≈ 0.701 µM). The “MIC Staphylococcus haemolyticus (GC 4546)” value ([1]; strain GC 4546) was 1 µg/mL (≈ 0.701 µM), the “MIC Coagulase Negative Staphylococcus (GC 4547)” value ([1]; strain GC 4547) was 2 µg/mL (≈ 1.4 µM) and the “MIC Coagulase Negative Staphylococcus (GC 4548)” value ([1]; strain GC 4548) was 1 µg/mL (≈ 0.701 µM). For the same molecule, the “MIC Coagulase Negative Staphylococcus (GC 4549)” value ([1]; strain GC 4549) was 1 µg/mL (≈ 0.701 µM), the “MIC Coagulase Negative Staphylococcus (GC 4551)” value ([1]; strain GC 4551) was 2 µg/mL (≈ 1.4 µM) and the “MIC Coagulase Negative Staphylococcus (GC 6257)” value ([1]; strain GC 6257) was 1 µg/mL (≈ 0.701 µM). The “MIC Staphylococcus aureus-SMITH (GC 4543)” value ([1]; strain SMITH GC 4543) was 1 µg/mL (≈ 0.701 µM), the “MIC Staphylococcus aureus (ATCC 29213)” value ([1]; strain ATCC 29213) was 2 µg/mL (≈ 1.4 µM) and the “MIC Staphylococcus aureus (GC 1131)” value ([1]; strain GC 1131) was 2 µg/mL (≈ 1.4 µM). The “MIC Staphylococcus aureus (GC 3051)” value ([1]; strain GC 3051) was 1 µg/mL (≈ 0.701 µM), the “MIC Staphylococcus aureus (GC 3053)” value ([1]; strain GC 3053) was 2 µg/mL (≈ 1.4 µM) and the “MIC Staphylococcus aureus (GC 4541)” value ([1]; strain GC 4541) was 2 µg/mL (≈ 1.4 µM). For the same molecule, the “MIC Staphylococcus aureus (GC 4542)” value ([1]; strain GC 4542) was 2 µg/mL (≈ 1.4 µM), the “MIC Staphylococcus aureus (GC 4544)” value ([1]; strain GC 4544) was 2 µg/mL (≈ 1.4 µM) and the “MIC Staphylococcus aureus (GC 4545)” value ([1]; strain GC 4545) was 1 µg/mL (≈ 0.701 µM). For the same molecule, the “MIC Enterococcus avium (GC 4558)” value ([2]; Enterococcus avium (GC 4558)) was 8 µg/mL (≈ 5.6 µM), the “MIC Enterococcus faecalis (ATCC 29212)” value ([2]; Enterococcus faecalis (ATCC 29212)) was 4 µg/mL (≈ 2.8 µM) and the “MIC Enterococcus faecalis (GC 2242)” value ([2]; Enterococcus faecalis (GC 2242)) was 4 µg/mL (≈ 2.8 µM). The “MIC Enterococcus faecalis (GC 2691)” value ([2]; Enterococcus faecalis (GC 2691)) was 8 µg/mL (≈ 5.6 µM), the “MIC Enterococcus faecalis (GC 3059)” value ([2]; Enterococcus faecalis (GC 3059)) was 8 µg/mL (≈ 5.6 µM) and the “MIC Enterococcus faecalis (GC 4552)” value ([2]; Enterococcus faecalis (GC 4552)) was 8 µg/mL (≈ 5.6 µM). The “MIC Enterococcus faecalis (GC 4553)” value ([2]; Enterococcus faecalis (GC 4553)) was 8 µg/mL (≈ 5.6 µM), the “MIC Enterococcus faecalis (GC 4554)” value ([2]; Enterococcus faecalis (GC 4554)) was 8 µg/mL (≈ 5.6 µM) and the “MIC Enterococcus faecalis (GC 6189)” value ([2]; Enterococcus faecalis (GC 6189)) was 4 µg/mL (≈ 2.8 µM). For the same molecule, the “MIC Enterococcus faecium (GC 2243)” value ([2]; Enterococcus faecium (GC 2243)) was 4 µg/mL (≈ 2.8 µM), the “MIC Enterococcus faecium (GC 4556)” value ([2]; Enterococcus faecium (GC 4556)) was 4 µg/mL (≈ 2.8 µM) and the “MIC Enterococcus faecium (GC 4557)” value ([2]; Enterococcus faecium (GC 4557)) was 2 µg/mL (≈ 1.4 µM). For the same molecule, the “MIC Enterococcus faecalis (ATCC 29212)” value ([2]; strain ATCC 29212) was 4 µg/mL (≈ 2.8 µM), the “MIC Enterococcus faecalis (GC 2242)” value ([2]; strain GC 2242) was 4 µg/mL (≈ 2.8 µM) and the “MIC Enterococcus faecium (GC 2243)” value ([2]; strain GC 2243) was 4 µg/mL (≈ 2.8 µM). The “MIC Enterococcus faecalis (GC 2691)” value ([2]; strain GC 2691) was 8 µg/mL (≈ 5.6 µM), the “MIC Enterococcus faecalis (GC 3059)” value ([2]; strain GC 3059) was 8 µg/mL (≈ 5.6 µM) and the “MIC Enterococcus faecalis (GC 4552)” value ([2]; strain GC 4552) was 8 µg/mL (≈ 5.6 µM). The “MIC Enterococcus faecalis (GC 4553)” value ([2]; strain GC 4553) was 8 µg/mL (≈ 5.6 µM), the “MIC Enterococcus faecalis (GC 4554)” value ([2]; strain GC 4554) was 8 µg/mL (≈ 5.6 µM) and the “MIC Enterococcus faecium (GC 4556)” value ([2]; strain GC 4556) was 4 µg/mL (≈ 2.8 µM). For the same molecule, the “MIC Enterococcus faecium (GC 4557)” value ([2]; strain GC 4557) was 2 µg/mL (≈ 1.4 µM), the “MIC Enterococcus avium (GC 4558)” value ([2]; strain GC 4558) was 8 µg/mL (≈ 5.6 µM) and the “MIC Enterococcus faecalis (GC 6189)” value ([2]; strain GC 6189) was 4 µg/mL (≈ 2.8 µM). The “MIC Escherichia coli (ATCC 25922)” value ([3]; strain ATCC 25922) was 64 µg/mL (≈ 44.8 µM), the “MIC Escherichia coli (GC 4559)” value ([3]; strain GC 4559) was 64 µg/mL (≈ 44.8 µM) and the “MIC Escherichia coli (GC 4560)” value ([3]; strain GC 4560) was 1 µg/mL (≈ 0.701 µM). The “MIC Streptococcus agalactiae (GC 4564)” value ([4]; Streptococcus agalactiae (GC 4564)) was 0.5 µg/mL (≈ 0.35 µM), the “MIC Streptococcus pneumoniae (ATCC 6301)” value ([4]; Streptococcus pneumoniae (ATCC 6301)) was 0.12 µg/mL (≈ 0.0841 µM) and the “MIC Streptococcus pneumoniae (GC 1894)” value ([4]; Streptococcus pneumoniae (GC 1894)) was 0.12 µg/mL (≈ 0.0841 µM). For the same molecule, the “MIC Streptococcus pneumoniae (GC 4565)” value ([4]; Streptococcus pneumoniae (GC 4565)) was 0.12 µg/mL (≈ 0.0841 µM), the “MIC Streptococcus pyogenes (GC 4563)” value ([4]; Streptococcus pyogenes (GC 4563)) was 0.25 µg/mL (≈ 0.175 µM) and the “MIC Streptococcus pneumoniae (ATCC 6301)” value ([4]; strain ATCC 6301) was 0.12 µg/mL (≈ 0.0841 µM). For the same molecule, the “MIC Streptococcus pneumoniae (GC 1894)” value ([4]; strain GC 1894) was 0.12 µg/mL (≈ 0.0841 µM), the “MIC Streptococcus pyogenes (GC 4563)” value ([4]; strain GC 4563) was 0.25 µg/mL (≈ 0.175 µM) and the “MIC Streptococcus agalactiae (GC 4564)” value ([4]; strain GC 4564) was 0.5 µg/mL (≈ 0.35 µM). The “MIC Streptococcus pneumoniae (GC 4565)” value ([4]; strain GC 4565) was 0.12 µg/mL (≈ 0.0841 µM) and the median effective dose (ED50), Staphylococcus aureus-SMITH (GC 4543) [5] was 0.28 mg/kg.
